Experimental findings from ChEMBL document CHEMBL1150212, “Antitumor agents, 129. Tannins and related compounds as selective cytotoxic agents” (1992) are described below.

What all share (type): functional
What all share (conditions): read-out: ED50 (the source's name)

Experiment [1] is described as follows: Cytotoxicity against human […] cells by tetrazolium salt-based colorimetric assay.
Experiment [2] deals with KB. Nature of the experiment: Cytotoxicity against human KB cells by tetrazolium salt-based colorimetric assay.
The test system of experiment [3] is A549. Nature of the experiment: Cytotoxicity against human A549 cells by tetrazolium salt-based colorimetric assay.
Experiment [4] concerns HCT-8. Nature of the experiment: Cytotoxicity against human HCT8 cells by tetrazolium salt-based colorimetric assay.
In experiment [5] the test system is TE-671. Nature of the experiment: Cytotoxicity against human TE671 cells by tetrazolium salt-based colorimetric assay.

Regarding `O=C(O[C@@H]1O[C@H](CO)[C@@H](O)[C@H](O)[C@H]1O)c1cc(O)c(O)c(O)c1`, the EC50 in experiment [1], in experiment [2], in experiment [3], in experiment [4] and in experiment [5] was more than 10 µg/mL throughout.

On to `O=C(O[C@@H]1O[C@@H]2COC(=O)c3cc(O)c(O)c(O)c3-c3c(cc(O)c(O)c3O)C(=O)O[C@H]2[C@@H]2OC(=O)c3cc(O)c(O)c(O)c3-c3c(cc(O)c(O)c3O)C(=O)O[C@@H]12)c1cc(O)c(O)c(Oc2c(O)c(O)c(O)c3c2C(=O)O[C@H]2[C@@H]4OC(=O)c5cc(O)c(O)c(O)c5-c5c(cc(O)c(O)c5O)C(=O)O[C@H]4[C@@H](OC(=O)c4cc(O)c(O)c(Oc5c(O)c(O)c(O)c6c5C(=O)O[C@H]5[C@@H]7OC(=O)c8cc(O)c(O)c(O)c8-c8c(cc(O)c(O)c8O)C(=O)O[C@H]7[C@H](OC(=O)c7cc(O)c(O)c(Oc8c(O)c(O)c(O)c9c8C(=O)O[C@H]8[C@@H]%10OC(=O)c%11cc(O)c(O)c(O)c%11-c%11c(cc(O)c(O)c%11O)C(=O)O[C@H]%10[C@@H](OC(=O)c%10cc(O)c(O)c(O)c%10)O[C@@H]8COC(=O)c8cc(O)c(O)c(O)c8-9)c7)O[C@@H]5COC(=O)c5cc(O)c(O)c(O)c5-6)c4)O[C@@H]2COC(=O)c2cc(O)c(O)c(O)c2-3)c1`, for which the EC50 was 0.5 µg/mL in experiment [1]; more than 10 µg/mL in experiment [2]; more than 10 µg/mL in experiment [3]; more than 10 µg/mL in experiment [4]; more than 10 µg/mL in experiment [5].

Take `O=C(OC[C@H]1O[C@@H](OC(=O)c2cc(O)c(O)c(O)c2)[C@H](O)[C@@H](O)[C@@H]1O)c1cc(O)c(O)c(O)c1`: the EC50 in experiment [1], in experiment [2], in experiment [3], in experiment [4] and in experiment [5] was more than 10 µg/mL in each case.

For the compound `Oc1cc(O)c2c(c1)O[C@H](c1ccc(O)c(O)c1)[C@H](O)C2` [(-)-EPICATECHIN], the EC50 in experiment [1], in experiment [2], in experiment [3], in experiment [4] and in experiment [5] was more than 10 µg/mL each time.

As for `O=C1OC[C@H]2OC(=O)c3cc(O)c(O)c(O)c3-c3c(O)c(O)c(O)c4c3C(=O)O[C@H]([C@@H]3OC(=O)c5c-4c(O)c(O)c(O)c5[C@@H]3c3c(O)cc(O)c4c3O[C@H](c3ccc(O)c(O)c3)[C@@H](O)C4)[C@H]2OC(=O)c2cc(O)c(O)c(O)c2-c2c1cc(O)c(O)c2O` [ACUTISSIMIN A], the EC50 in experiment [1] was 0.61 µg/mL; in experiment [2], more than 10 µg/mL; in experiment [3], more than 10 µg/mL; in experiment [4] it was more than 10 µg/mL; in experiment [5] it was more than 10 µg/mL.

As for `O=C1OC[C@H]2OC(=O)c3cc(O)c(O)c(O)c3-c3c(O)c(O)c(O)c4c3C(=O)O[C@H]([C@H]3OC(=O)c5c-4c(O)c(O)c(O)c5[C@H]3O)[C@@H]2OC(=O)c2cc(O)c(O)c(O)c2-c2c1cc(O)c(O)c2O` [CASTALAGIN], the EC50 in experiment [1] is 0.79 µg/mL; in experiment [2], more than 10 µg/mL; in experiment [3], more than 10 µg/mL; in experiment [4], more than 10 µg/mL; in experiment [5], more than 10 µg/mL.

Consider `CC1(C)CC[C@]2(C(=O)O)CC[C@]3(C)C(=CC[C@@H]4[C@@]5(C)C[C@@H](O)[C@@H]6OC(=O)c7cc(O)c(O)c(O)c7-c7c(cc(O)c(O)c7O)C(=O)OC[C@@]6(CO)[C@@H]5CC[C@]43C)[C@@H]2C1` [CASTANOPSINIIN A], for which the EC50 in experiment [1], in experiment [2], in experiment [3], in experiment [4] and in experiment [5] was more than 10 µg/mL throughout.

Consider `CC1(C)CC[C@]2(C(=O)O[C@@H]3O[C@H](CO)[C@@H](O)[C@H](O)[C@H]3O)CC[C@]3(C)C(=CC[C@@H]4[C@@]5(C)C[C@@H](O)[C@@H]6OC(=O)c7cc(O)c(O)c(O)c7-c7c(cc(O)c(O)c7O)C(=O)OC[C@@]6(CO)[C@@H]5CC[C@]43C)[C@@H]2C1` [CASTANOPSININ A], for which the EC50 in experiment [1], in experiment [2], in experiment [3], in experiment [4] and in experiment [5] was more than 10 µg/mL each time.

In the case of `O=C(O[C@@H]1COC(=O)c2cc(O)c(O)c(O)c2-c2c(cc(O)c(O)c2O)C(=O)O[C@H]1[C@@H]1OC(=O)c2cc(O)c(O)c(O)c2-c2c(O)c(O)c(O)c3c2C(=O)O[C@H]1[C@@H]3O)c1cc(O)c(O)c(O)c1` [CASUARININ], the EC50 in experiment [1] is 2.24 µg/mL; in experiment [2], more than 10 µg/mL; in experiment [3] it was more than 10 µg/mL; in experiment [4], more than 10 µg/mL; in experiment [5] it was more than 10 µg/mL.

In the case of `O=C(O)C[C@@H]1C(=O)O[C@H]2[C@@H]3OC(=O)c4cc(O)c(O)c(O)c4-c4c(cc(O)c(O)c4O)C(=O)OC[C@H]2O[C@@H](OC(=O)c2cc(O)c(O)c(O)c2)[C@@H]3OC(=O)c2cc(O)c(O)c3c2[C@H]1[C@H](O)C(=O)O3` [CHEBULAGIC ACID], the EC50 in experiment [1] was 0.8 µg/mL; in experiment [2], more than 10 µg/mL; in experiment [3], more than 10 µg/mL; in experiment [4], more than 10 µg/mL; in experiment [5], more than 10 µg/mL.

On to `O=C(O)C[C@H]1C(=O)O[C@H]2[C@H](OC(=O)c3cc(O)c(O)c(O)c3)[C@@H](OC(=O)c3cc(O)c(O)c4c3[C@H]1[C@H](O)C(=O)O4)[C@H](OC(=O)c1cc(O)c(O)c(O)c1)O[C@@H]2COC(=O)c1cc(O)c(O)c(O)c1` [CHEBULINIC ACID], for which the EC50 in experiment [1], in experiment [2], in experiment [3], in experiment [4] and in experiment [5] was more than 10 µg/mL throughout.

In the case of `Oc1cc(O)c2c(c1)O[C@H](c1ccc(O)c(O)c1)[C@@H](O)C2` [CIANIDANOL], the EC50 in experiment [1], in experiment [2], in experiment [3], in experiment [4] and in experiment [5] was more than 10 µg/mL each time.

For the compound `Oc1cc(O)c2c(c1)O[C@@]1(c3ccc(O)c(O)c3)Oc3cc(O)c4c(c3[C@@H]2[C@H]1O)O[C@H](c1ccc(O)c(O)c1)[C@H](O)[C@H]4c1c(O)cc(O)c2c1O[C@H](c1ccc(O)c(O)c1)[C@H](O)C2` [CINNAMTANNIN B1], the EC50 in experiment [1] was 3.57 µg/mL; in experiment [2] it was more than 10 µg/mL; in experiment [3] it was more than 10 µg/mL; in experiment [4], more than 10 µg/mL; in experiment [5] it was more than 10 µg/mL.

As to `Oc1cc(O)c2c(c1)O[C@H](c1ccc(O)c(O)c1)[C@H](O)[C@H]2c1c(O)cc(O)c2c1O[C@@]1(c3ccc(O)c(O)c3)Oc3cc(O)c4c(c3[C@@H]2[C@H]1O)O[C@H](c1ccc(O)c(O)c1)[C@H](O)[C@H]4c1c(O)cc(O)c2c1O[C@H](c1ccc(O)c(O)c1)[C@H](O)C2` [CINNAMTANNIN B2], the EC50 in experiment [1] was 0.66 µg/mL; in experiment [2], more than 10 µg/mL; in experiment [3] it was more than 10 µg/mL; in experiment [4], more than 10 µg/mL; in experiment [5], more than 10 µg/mL.

In the case of `O=C(O[C@@H]1O[C@@H]2COC(=O)c3cc(O)c(O)c(O)c3-c3c(cc(O)c(O)c3O)C(=O)O[C@H]([C@H]1O)[C@@H]2O)c1cc(O)c(O)c(O)c1` [CORILAGIN], the EC50 in experiment [1], in experiment [2], in experiment [3], in experiment [4] and in experiment [5] was more than 10 µg/mL each time.

For the compound `O=C(O[C@@H]1O[C@@H]2COC(=O)c3cc(O)c(O)c(O)c3-c3c(cc(O)c(O)c3O)C(=O)O[C@@H]3[C@H]1OC(=O)c1cc(O)c(O)c4c1C1C(O)(O4)[C@]4(O)C[C@@]5(C(=O)O[C@H]6C(O)CO[C@@]65O)[C@]1(CC4=O)C(=O)O[C@@H]32)c1cc(O)c(O)c(O)c1` (stereo not given in full) [ELAEOCARPUSIN], the EC50 was 2.62 µg/mL in experiment [1]; more than 10 µg/mL in experiment [2]; more than 10 µg/mL in experiment [3]; more than 10 µg/mL in experiment [4]; more than 10 µg/mL in experiment [5].

On to `O=C(O[C@@H]1Cc2c(O)cc(O)cc2O[C@@H]1c1ccc(O)c(O)c1)c1cc(O)c(O)c(O)c1` [EPICATECHIN GALLATE], for which the EC50 is 0.55 µg/mL in experiment [1]; more than 10 µg/mL in experiment [2]; more than 10 µg/mL in experiment [3]; more than 10 µg/mL in experiment [4]; more than 10 µg/mL in experiment [5].

Turning to `O=C(O[C@@H]1O[C@@H]2COC(=O)c3cc(O)c(O)c(O)c3-c3c(cc(O)c(O)c3O)C(=O)O[C@H]2[C@H](OC(=O)c2cc(O)c(O)c(O)c2)[C@H]1OC(=O)c1cc(O)c(O)c(O)c1)c1cc(O)c(O)c(O)c1` [EUGENIIN], the EC50 is 2.74 µg/mL in experiment [1]; more than 10 µg/mL in experiment [2]; more than 10 µg/mL in experiment [3]; more than 10 µg/mL in experiment [4]; more than 10 µg/mL in experiment [5].

Consider `O=C1O[C@H]2[C@H](O)[C@@H](OC(=O)c3cc(O)c(O)c4c3[C@@H]3C1=CC(=O)C(O)(O)C3(O)O4)[C@H](OC(=O)c1cc(O)c(O)c(O)c1)O[C@@H]2CO` (stereo not given in full) [FUROSIN], for which the EC50 in experiment [1] is 0.67 µg/mL; in experiment [2], more than 10 µg/mL; in experiment [3] it was more than 10 µg/mL; in experiment [4] it was more than 10 µg/mL; in experiment [5], more than 10 µg/mL.

As to `O=C1O[C@H]2[C@@H]3OC(=O)c4cc(O)c(O)c(O)c4-c4c(cc(O)c(O)c4O)C(=O)OC[C@H]2O[C@@H](OC(=O)c2cc(O)c(O)c(O)c2)[C@@H]3OC(=O)c2cc(O)c(O)c3c2[C@@H]2C1=CC(=O)[C@](O)(O3)C2(O)O` [GERANIIN], the EC50 in experiment [1] was 0.35 µg/mL; in experiment [2] it was more than 10 µg/mL; in experiment [3], more than 10 µg/mL; in experiment [4] it was more than 10 µg/mL; in experiment [5], more than 10 µg/mL.

Turning to `O=C1OC[C@H]2OC(=O)c3cc(O)c(O)c(O)c3-c3c(O)c(O)c(O)c4c3C(=O)O[C@H]([C@H]3OC(=O)c5c-4c(O)c(O)c(O)c5[C@@H]3C3(O)OC[C@H](O)[C@@H](O)[C@H]3O)[C@@H]2OC(=O)c2cc(O)c(O)c(O)c2-c2c1cc(O)c(O)c2O` (stereo not given in full) [GRANDININ], the EC50 in experiment [1] is 0.1 µg/mL; in experiment [2], more than 10 µg/mL; in experiment [3], more than 10 µg/mL; in experiment [4] it was more than 10 µg/mL; in experiment [5], more than 10 µg/mL.
